Common to all, as to assay: growth of human tumour cells (NCI), 48 h
Assay [1] has as its system EKVX NSCLC.
Assay [2] concerns COLO 205 colon.
The test system of assay [3] is LOX IMVI melanoma.
For assay [4], the system named is HCC-2998 colon.
For assay [5], the system named is U251 CNS.
Assay [6] deals with MALME-3M melanoma.
The test system of assay [7] is NCI-H460 lung.
Assay [8] has as its system OVCAR-3 ovarian.
In assay [9] the test system is NCI-H522 lung.

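1) Cells in 96-well plates. 2) Compound, 48 h, 5 concentrations. 3) Linear interpolation between surrounding doses. 4) Unreached endpoint = highest concentration. TGI is the concentration that stops growth completely.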 Bounds are passed on as bounds.

Regarding `O=c1c2ccccc2oc2nccnc12`, the TGI in assay [1], in assay [2], in assay [3], in assay [4], in assay [5] and in assay [6] was over 100 µM throughout. Also, the TGI in assay [7] and in assay [8] was over 100 µM each time.
As to `O=C(CC1Sc2ccccc2NC1=O)Nc1ccc([N+](=O)[O-])cc1[N+](=O)[O-]` (stereo not drawn), the TGI in assay [1] was 69.2 µM; in assay [2], over 100 µM; in [3], 30.1 µM; in assay [4], over 100 µM; in [5], 30.3 µM; in [6], 40.6 µM. Further, the figures for the TGI in assay [7] and in assay [8] were 59.5 µM and 31.5 µM, respectively.
In the case of `CC(C)(C)NC(=O)C12C3C4C1C1C2C3C41I` (stereo not drawn), the TGI in assay [2], in [3], in assay [4], in assay [5], in assay [6] and in assay [7] was over 100 µM in each case. Moreover, the TGI in assay [9] is over 100 µM.
In the case of `CC(=O)OCC1OC(n2c(-c3ccc(N)cc3)cc(-c3ccco3)c(C#N)c2=O)C(OC(C)=O)C(OC(C)=O)C1OC(C)=O` (stereo not drawn), the TGI in [1] was over 50 µM; in assay [2] it was over 50 µM; in assay [3], over 50 µM; in [4], over 50 µM; in [5], 29.8 µM; in assay [6] it was over 50 µM. Further, the TGI in assay [8] and in [9] was over 50 µM throughout.
Regarding `N#CC1(Cc2ccccc2Cl)c2ccccc2C=CN1C(=O)c1ccccc1` (stereo not drawn), the TGI in assay [1], in assay [2], in assay [3], in assay [4], in assay [5] and in assay [6] was over 100 µM each time. The TGI in assay [8] and in assay [9] was over 100 µM in each case.
Consider `CCOc1cccc2cccnc12`, for which the TGI in [1], in assay [2], in [3], in assay [4], in [6] and in assay [7] was over 100 µM in each case. Also, the TGI in assay [8] and in assay [9] was over 100 µM throughout.
Turning to `C[N+](C)(C)CC(=O)NC(=O)N/N=C\C(CC#N)CN(Cc1ccccc1)Cc1ccccc1` (stereo not drawn), the TGI in assay [1], in assay [2], in assay [3], in [4], in [5] and in assay [6] was over 100 µM each time. The TGI in [7], in assay [8] and in assay [9] was over 100 µM throughout.
Regarding `c1cc(C2O[C@H]3CCCN3[C@@H]2c2ccncc2)ccn1` (stereo partly drawn), the TGI in [1], in assay [2], in assay [3], in [5], in [6] and in [7] was over 100 µM throughout. The TGI in [8] and in assay [9] was over 100 µM in each case.
Take `COc1cc(OC)c(Oc2cccc(OC)c2OC)c(OC)c1`: the TGI in assay [1], in [2], in assay [3], in [4], in assay [5] and in assay [7] was over 100 µM in each case. Further, the TGI in [8] and in assay [9] was over 100 µM throughout.
As for `Cc1cc(C)c(-c2noc(-c3ccc(Cl)cc3)c2C2=NCCN2)c(C)c1`, the TGI in [1] worked out at 71.8 µM; in [2], 35.2 µM; in assay [3], 42.9 µM; in assay [4] it was 36 µM; in [5], 34.3 µM; in assay [6] it was 37.7 µM. Also, the TGI in assay [7] is 32.1 µM; in [8] it was 44.7 µM.
With `O=C(Nc1ccc(Cl)cc1Cl)c1c/c(=N\O)c2ccc(O)cc2o1`, the TGI in assay [2], in assay [3], in assay [5], in assay [6], in [7] and in assay [8] was over 100 µM in each case. Moreover, in assay [9], the TGI was over 100 µM.
For the molecule `O=C(O)C(=O)/C=C\c1ccc(Cl)cc1`, the TGI in [1], in assay [2], in [3], in [4], in assay [5] and in assay [6] was over 100 µM throughout. Besides, the TGI in assay [7], in assay [8] and in assay [9] was over 100 µM in each case.
`NNC(=S)N/N=C(\c1nc2ccc(Cl)cc2[nH]c1=O)C(O)c1ccc(Cl)cc1Cl` (stereo not drawn): the TGI in assay [1], in assay [2], in [3], in assay [5], in assay [6] and in [7] was over 100 µM each time. Besides, the TGI in assay [9] is over 100 µM.
On to `COc1ccc2c(c1)C(CCN)C(=O)N2` (stereo not drawn), for which the TGI in assay [1], in assay [2], in [3], in [4], in [5] and in assay [6] was over 100 µM each time. Besides, the TGI in assay [7] and in [8] was over 100 µM in each case.
Take `CCOC(=O)C(=C=Cc1cccs1)C(=O)c1ccccc1`: the TGI in [1] was determined as 31 µM; in assay [2], 31.4 µM; in [3], 24.9 µM; in [4], 31.2 µM; in assay [5], 31.3 µM; in [6], 29.3 µM. The values for the TGI in assay [7] and in [9] were 46 µM and 28.3 µM, respectively.
Turning to `CC(C)CCC[C@@H](C)C1CCC2[C@@H]3CC=C4C[C@@H](OC(=O)CCC(=O)NCC[N+](C)(C)CCCS(=O)(=O)[O-])CC[C@]4(C)C3CC[C@@]21C` (stereo partly drawn), the TGI in assay [1] was 79.5 µM; in assay [2] it was 40.3 µM; in assay [3], 33.1 µM; in [4] it was 37.5 µM; in [5], 33.9 µM; in [6], 43.7 µM. Moreover, the TGI was determined as 30.9 µM in [7], 34.5 µM in [8] and 73 µM in assay [9].

Values taken from PubChem BioAssay (NCI).
